Molecules are shown by their SMILES. Values after ≈ are worked out from the molar mass of the structure shown.

Here are results for seven molecules from patent US7435751B2, “7-Fluoro-1,3-dihydro-indol-2-one oxazolidinones as antibacterial agents” (priority 2005, dated 2008).

The subject of one test is S. pneumoniae SV1 SP-3. Description: In vitro antibacterial activity against S. pneumoniae SV1 SP-3. The note with it: Streptococcus pneumoniae, SV1SP3; strain SV1 SP-3. Format: cell-based. From the text: (§1) The in vitro antibacterial activity of the compounds of the present invention may be assessed by following procedures recommended in (1) National Committee for Clinical Laboratory Standards (January 2003), Methods for dilution antimicrobial tests for bacteria that grow aerobically, Approved Standard (6th ed), M7-A6, NCCLS, Wayne, Pa.; (2) National Committee for Clinical Laboratory Standards (March 2001), Methods for antimicrobial susceptibility testing of anaerobic bacteria, Approved Standard (5th ed), M11-A4, NCCLS, Wayne, Pa.; (3) National Committee for Clinical Laboratory Standards (Jan. 2003), MIC testing supplemental tables, M100-S13 (for use with M7-A6), NCCLS, Wayne, Pa.; and (4) Murray P R, Baron E J, Jorgensen J H, et al. Manual of Clinical Microbiology (8th ed) Washington, D.C.: American Society for Microbiology Press, 2003. The antibacterial activity can be presented in the form of MIC value. The MIC value is the lowest concentration of drug which prevented macroscopically visible growth under the conditions of the test.

The test system of the next test is S. aureus UC-76 SA-1. Description: In vitro antibacterial activity against S. aureus UC-76 SA-1. Format: cell-based. The settings on record: Staphylococcus aureus, UC76; strain UC-76 SA-1.
Excerpt: as §1

The subject of a further test is E. faecalis MGH-2 EF 1-1. Nature of the test: In vitro antibacterial activity against E. faecalis MGH-2 EF 1-1. The settings on record: Enterococcus faecalis, MGH2EF11; strain MGH-2 EF 1-1. Format: cell-based.
Excerpt: as §1

Another test concerns the target T1, MAO-A (Homo sapiens, UniProt P21397).
T1 sequence (P21397 1-527): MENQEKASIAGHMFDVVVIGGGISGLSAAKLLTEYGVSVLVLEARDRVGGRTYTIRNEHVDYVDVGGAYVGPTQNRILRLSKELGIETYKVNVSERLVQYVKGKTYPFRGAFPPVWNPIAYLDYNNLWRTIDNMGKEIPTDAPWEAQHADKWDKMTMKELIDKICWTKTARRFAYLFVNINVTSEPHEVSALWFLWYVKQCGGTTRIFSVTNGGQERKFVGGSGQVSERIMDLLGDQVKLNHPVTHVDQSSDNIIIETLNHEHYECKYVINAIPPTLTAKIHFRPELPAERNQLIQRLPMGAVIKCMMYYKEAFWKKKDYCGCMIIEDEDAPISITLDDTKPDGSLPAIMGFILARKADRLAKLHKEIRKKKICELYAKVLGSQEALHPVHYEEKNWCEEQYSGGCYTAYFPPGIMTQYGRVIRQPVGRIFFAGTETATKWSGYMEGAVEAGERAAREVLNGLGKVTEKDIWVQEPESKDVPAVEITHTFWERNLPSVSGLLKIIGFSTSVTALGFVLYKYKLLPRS
Description: Monoamine oxidase A inhibition (conversion of MAO substrate to dihydropyridinium metabolite). Format: biochemical. The settings on record: substrate at Km 64 μM; MAO-A 0.01 mg/mL. As to the method: (§2) Following procedure may assess monoamine oxidase inhibition activity of the compounds of the present invention:
(§3) MAO-A and B inhibition were analyzed by measuring the inhibition of conversion of an MAO substrate, 1-methyl-4-(1-methyl-2-pyrryl)-1,2,3,6-tetrahydropyridine, to its dihydropyridinium metabolite (λ=421 nm). The substrate concentration was equal to the Km (64 μM for MAO-A and 43 μM for MAO-B). The MAO-A concentration was 0.01 mg/mL, and the MAO-B concentration was 0.008 mg/mL. Each inhibitor was tested at seven concentrations. Percent inhibition at each concentration was established relative to the uninhibited control rate, and the IC50 and Ki values were calculated.

Another test has as its target T2, MAO-B (Homo sapiens, UniProt P27338).
T2 sequence (P27338 1-520): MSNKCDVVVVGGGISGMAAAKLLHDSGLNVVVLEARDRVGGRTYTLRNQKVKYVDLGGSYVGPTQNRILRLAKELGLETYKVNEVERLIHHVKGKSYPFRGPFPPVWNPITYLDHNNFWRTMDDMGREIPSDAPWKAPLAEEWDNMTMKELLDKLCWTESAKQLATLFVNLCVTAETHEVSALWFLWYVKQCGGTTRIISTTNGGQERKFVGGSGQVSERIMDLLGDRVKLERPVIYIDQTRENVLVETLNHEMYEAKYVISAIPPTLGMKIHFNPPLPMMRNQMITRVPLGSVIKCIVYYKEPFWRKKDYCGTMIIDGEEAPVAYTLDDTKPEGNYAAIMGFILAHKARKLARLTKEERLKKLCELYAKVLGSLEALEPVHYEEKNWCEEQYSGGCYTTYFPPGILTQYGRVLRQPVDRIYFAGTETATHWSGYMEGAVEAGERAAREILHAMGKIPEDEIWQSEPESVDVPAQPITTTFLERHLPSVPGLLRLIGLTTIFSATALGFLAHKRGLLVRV
Nature of the test: Monoamine oxidase B inhibition (conversion of MAO substrate to dihydropyridinium metabolite). Format: biochemical. The note with it: substrate at Km 43 μM; MAO-B 0.008 mg/mL. As to the method:
as §2, §3

The test system of another test is S. aureus (LORSA). Description: In vitro antibacterial activity, MIC90 against S. aureus (LORSA). Format: cell-based. The note with it: Staphylococcus aureus.
Excerpt: as §1

The subject of the next test is E. faecium (VREF). Description: In vitro antibacterial activity, MIC90 against E. faecium (VREF). Format: cell-based. The note with it: Enterococcus faecium.
Excerpt: as §1

The next test relates to E. faecalis (VREF). Description: In vitro antibacterial activity, MIC90 against E. faecalis (VREF). Format: cell-based. The note with it: Enterococcus faecalis.
Excerpt: as §1

In the next test the test system is S. pneumoniae (LRSA). Description: In vitro antibacterial activity, MIC90 against S. pneumoniae (LRSA). Format: cell-based. The settings on record: Streptococcus pneumoniae.
Excerpt: as §1

For the molecule `COC(=O)NC[C@H]1CN(c2cc(F)c3c(c2)CC(=O)N3CCF)C(=O)O1` [Example 4, (S)-{3-[7-fluoro-1-(2-fluoro-ethyl)-2-oxo-2,3-dihydro-1H-indol-5-yl]-2-oxo-oxazolidin-5-ylmethyl}-carbamic acid methyl ester], the MIC90 against S. pneumoniae SV1 SP-3 stood at 4 µg/mL (≈ 10.8 µM); with S. aureus UC-76 SA-1, 4 µg/mL (≈ 10.8 µM); with E. faecalis MGH-2 EF 1-1, 2 µg/mL (≈ 5.42 µM).

With `CCN1C(=O)Cc2cc(N3C[C@H](CNC(=O)OC)OC3=O)cc(F)c21` [Example 3, (S)-[3-(1-ethyl-7-fluoro-2-oxo-2,3-dihydro-1H-indol-5-yl)-2-oxo-oxazolidin-5-ylmethyl]-carbamic acid methyl ester], the MIC90 against S. pneumoniae SV1 SP-3 amounted to 4 µg/mL (≈ 11.4 µM); in the test with S. aureus UC-76 SA-1 it was 4 µg/mL (≈ 11.4 µM); in the test on E. faecalis MGH-2 EF 1-1, 2 µg/mL (≈ 5.69 µM).

Take `COC(=O)NC[C@H]1CN(c2cc(F)c3c(c2)CC(=O)N3C2CC2)C(=O)O1` [Example 6, (S)-[3-(1-cyclopropyl-7-fluoro-2-oxo-2,3-dihydro-1H-indol-5-yl)-2-oxo-oxazolidin-5-ylmethyl]-carbamic acid methyl ester]: the MIC90 in the test on S. pneumoniae SV1 SP-3, against S. aureus UC-76 SA-1 and in the test on E. faecalis MGH-2 EF 1-1 was 8 µg/mL (≈ 22 µM) throughout.

As to `CCCN1C(=O)Cc2cc(N3C[C@H](CNC(=O)OC)OC3=O)cc(F)c21` [Example 5, (S)-[3-(7-fluoro-2-oxo-1-propyl-2,3-dihydro-1H-indol-5-yl)-2-oxo-oxazolidin-5-ylmethyl]-carbamic acid methyl ester], the figures for the MIC90 against S. pneumoniae SV1 SP-3, in the test with S. aureus UC-76 SA-1 and against E. faecalis MGH-2 EF 1-1 were 4 µg/mL (≈ 10.9 µM), 8 µg/mL (≈ 21.9 µM) and 8 µg/mL (≈ 21.9 µM), respectively.

Regarding `COC(=O)NC[C@H]1CN(c2cc(F)c3c(c2)CC(=O)N3C)C(=O)O1` [Example 1, (5S)-[3-(7-fluoro-1-methyl-2-oxo-2,3-dihydro-1H-indol-5-yl)-2-oxo-oxazolidin-5-ylmethyl]-carbamic acid methyl ester], the Ki is 722 µM at MAO-A and 52.6 µM at MAO-B. For the same molecule, the MIC90 against S. aureus (LORSA), with E. faecium (VREF), with E. faecalis (VREF) and against S. pneumoniae (LRSA) was 4 µg/mL (≈ 11.9 µM) each time.

Consider `COC(=O)NC[C@H]1CN(c2cc(F)c3c(c2)CC(=O)N3C(C)C)C(=O)O1` [Example 2, (5S)-[3-(7-fluoro-1-isopropyl-2-oxo-2,3-dihydro-1H-indol-5-yl)-2-oxo-oxazolidin-5-ylmethyl]-carbamic acid methyl ester], for which the Ki at MAO-A is over 500 µM; on MAO-B, 3.17 µM. In addition, the MIC90 was found to be 4 µg/mL (≈ 10.9 µM) against S. aureus (LORSA), 2 µg/mL (≈ 5.47 µM) against E. faecium (VREF), 2 µg/mL (≈ 5.47 µM) against E. faecalis (VREF) and 2 µg/mL (≈ 5.47 µM) against S. pneumoniae (LRSA).

Take `COC(=O)NC[C@H]1CN(c2cc(F)c3c(c2)CC(=O)N3CC2CC2)C(=O)O1` [Example 7, (S)-[3-(1-cyclopropylmethyl-7-fluoro-2-oxo-2,3-dihydro-1H-indol-5-yl)-2-oxo-oxazolidin-5-ylmethyl]-carbamic acid methyl ester]: the MIC90 against S. pneumoniae SV1 SP-3, in the test with S. aureus UC-76 SA-1 and in the test with E. faecalis MGH-2 EF 1-1 was 4 µg/mL (≈ 10.6 µM) throughout.

By MIC90 is commonly meant an inhibitory concentration at the 90% level, which refers to growth in some studies and to a panel of isolates in others. A lower MIC90 goes with greater potency. As usually defined, the Ki is the equilibrium dissociation constant of an inhibitor or competing ligand from its target.
